Test results published in ChEMBL document CHEMBL3112496, “C1,C2-ether derivatives of the Amaryllidaceae alkaloid lycorine: retention of activity of highly lipophilic analogues against cancer cells” (Bioorg Med Chem Lett, 2014).

Key:
[1] = Growth inhibition of human Hs683 cells by MTT assay; assay type: functional; conditions: Hs 683
A549 = assay: Growth inhibition of human A549 cells by MTT assay; assay type: functional
T98G = assay: Growth inhibition of human T98G cells by MTT assay; assay type: functional
MCF7 = assay: Growth inhibition of human MCF7 cells by MTT assay; assay type: functional
SK-MEL-28 = assay: Growth inhibition of human SK-MEL-28 cells by MTT assay; assay type: functional
B16-F10 = assay: Growth inhibition of mouse B16F10 cells by MTT assay; assay type: functional
[2] = Lipophilicity, log P of the compound; assay type: physicochemical; conditions: octanol/water

Row | SMILES | GI50 (A549) [µM] | GI50 (MCF7) [µM] | GI50 (SK-MEL-28) [µM] | GI50 (B16-F10) [µM] | GI50 [1] [µM] | GI50 (T98G) [µM] | logP [2]
1 | O[C@H]1[C@H]2c3cc4c(cc3CN3CCC(=C[C@@H]1O)[C@H]23)OCO4 [LYCORINE] | 3 | 10.9 | 3.7 | 2.6 | 2.1 | 5.2 | -0.78
2 | C1=C2CCN3Cc4cc5c(cc4[C@H]([C@H](OCc4cccnc4)[C@H]1OCc1cccnc1)[C@@H]23)OCO5 | 72 | 88 | > 100 | 85 | > 100 | 87 | 
3 | CC(C)[Si](O[C@H]1[C@H]2c3cc4c(cc3CN3CCC(=C[C@@H]1O)[C@H]23)OCO4)(C(C)C)C(C)C | 15 | 23 | 24 | 9.5 | 24 | 20 | 
4 | C#CCCCCO[C@H]1[C@H]2c3cc4c(cc3CN3CCC(=C[C@@H]1OCCCCC#C)[C@H]23)OCO4 | 2.8 | 16 | 16 | 10 | 29 | 6.8 | 
5 | C#CCCCO[C@H]1C=C2CCN3Cc4cc5c(cc4[C@H]([C@@H]1O[Si](C(C)C)(C(C)C)C(C)C)[C@@H]23)OCO5 | 5.9 | 31 | 32 | 9 | 40 | 16 | 
6 | O[C@H]1[C@H]2c3cc4c(cc3CN3CCC(=C[C@@H]1OCc1cccnc1)[C@H]23)OCO4 | 40 | 80 | 81 | 66 | > 100 | 75 | 
7 | C#CCCCCO[C@H]1C=C2CCN3Cc4cc5c(cc4[C@H]([C@@H]1O)[C@@H]23)OCO5 | 11 | 32 | 49 | 34 | 55 | 34 | 
8 | C#CCCCO[C@H]1[C@H]2c3cc4c(cc3CN3CCC(=C[C@@H]1OCCCC#C)[C@H]23)OCO4 | 1.3 | 22 | 25 | 17 | 32 | 7.1 | 
9 | C1=C2CCN3Cc4cc5c(cc4[C@H]([C@H](OCC4CCC4)[C@H]1OCC1CCC1)[C@@H]23)OCO5 | 5.7 | 25 | 22 | 8 | 14 | 18 | 
10 | C1=C2CCN3Cc4cc5c(cc4[C@H]([C@H](OC/C=C/c4ccccc4)[C@H]1OC/C=C/c1ccccc1)[C@@H]23)OCO5 | 5.5 | 4.2 | 8.7 | 4.2 | 11 | 22 | 
11 | O[C@H]1[C@H]2c3cc4c(cc3CN3CCC(=C[C@@H]1OC/C=C/c1ccccc1)[C@H]23)OCO4 | 1.5 | 3.8 | 14 | 4.2 | 8.6 | 10 | 
12 | C=Cc1cccc2c1N(C)Cc1cc3c(cc1-2)OCO3 | 54 | 82 | 59 | 34 | > 100 | 89 | 
13 | C#CCCCCO[C@H]1C=C2CCN3Cc4cc5c(cc4[C@H]([C@@H]1O[Si](C(C)C)(C(C)C)C(C)C)[C@@H]23)OCO5 | 4.2 | 19 | 25 | 8.7 | 23 | 13 | 
14 | C#CCO[C@H]1[C@H]2c3cc4c(cc3CN3CCC(=C[C@@H]1O[Si](C(C)C)(C(C)C)C(C)C)[C@H]23)OCO4 | 3.6 | 8.3 | 8.2 | 6.2 | 27 | 4.9 | 
15 | C#CCCCCO[C@H]1[C@H]2c3cc4c(cc3CN3CCC(=C[C@@H]1O[Si](C(C)C)(C(C)C)C(C)C)[C@H]23)OCO4 | 21 | 28 | 26 | 6.4 | 35 | 24 | 
16 | C#CCCCO[C@H]1[C@H]2c3cc4c(cc3CN3CCC(=C[C@@H]1O[Si](C(C)C)(C(C)C)C(C)C)[C@H]23)OCO4 | 19 | 27 | 28 | 7.6 | 33 | 21 | 
17 | CO[C@H]1[C@H]2c3cc4c(cc3CN3CCC(=C[C@@H]1O[Si](C(C)C)(C(C)C)C(C)C)[C@H]23)OCO4 | 19 | 28 | 28 | 8.9 | 41 | 19 | 

Continued, in another order:

Row | GI50 (A549) [µM] | GI50 (MCF7) [µM] | GI50 (SK-MEL-28) [µM] | GI50 (B16-F10) [µM] | SMILES | GI50 [1] [µM] | GI50 (T98G) [µM] | logP [2]
18 | 23 | 32 | 52 | 28 | C#CCO[C@H]1[C@H]2c3cc4c(cc3CN3CCC(=C[C@@H]1OCC#C)[C@H]23)OCO4 | 27 | 68 | 
19 | 43 | > 100 | > 100 | 39 | CO[C@H]1[C@H]2c3cc4c(cc3CN3CCC(=C[C@@H]1O)[C@H]23)OCO4 | > 100 | 64 | 
20 | 35 | 85 | 85 | 55 | COCO[C@H]1C=C2CCN3Cc4cc5c(cc4[C@H]([C@@H]1O)[C@@H]23)OCO5 | > 100 | 48 | 
21 | 39 | 77 | 70 | 70 | C1=C2CCN3Cc4cc5c(cc4[C@H]([C@H](OC[C@@H]4CO4)[C@H]1OC[C@@H]1CO1)[C@@H]23)OCO5 | 44 | 44 | 
22 | 0.6 | 21 | 19 | 2.6 | C#CCCCO[C@H]1C=C2CCN3Cc4cc5c(cc4[C@H]([C@@H]1O)[C@@H]23)OCO5 | 69 | 4.2 | 
23 | 60 | 70 | > 100 | 51 | CSCO[C@H]1C=C2CCN3Cc4cc5c(cc4[C@H]([C@@H]1O)[C@@H]23)OCO5 | 86 | > 100 | 
24 | 11 | 7.7 | 42 | 21 | C=CCCO[C@H]1C=C2CCN3Cc4cc5c(cc4[C@H]([C@@H]1O)[C@@H]23)OCO5 | 67 | 39 | 
25 | 4.4 | 9.5 | 10 | 5.3 | CC(C)=CCO[C@H]1[C@H]2c3cc4c(cc3CN3CCC(=C[C@@H]1OCC=C(C)C)[C@H]23)OCO4 | 9.7 | 24 | 
26 | 54 | > 100 | > 100 | 51 | O[C@H]1[C@H]2c3cc4c(cc3CN3CCC(=C[C@@H]1OC[C@@H]1CO1)[C@H]23)OCO4 | > 100 | 49 | 
27 | 4 | 17 | 35 | 18 | CCO[C@H]1[C@H]2c3cc4c(cc3CN3CCC(=C[C@@H]1OCC)[C@H]23)OCO4 | 5.9 | 8.1 | 
28 | 4.2 | 28 | 33 | 27 | C1=C2CCN3Cc4cc5c(cc4[C@H]([C@H](OCC4CC4)[C@H]1OCC1CC1)[C@@H]23)OCO5 | 23 | 37 | 1.19
29 | 31 | > 100 | 92 | 40 | CO[C@H]1C=C2CCN3Cc4cc5c(cc4[C@H]([C@@H]1O)[C@@H]23)OCO5 [HIPPPAMINE] | 36 | 84 | 
30 | 26 | 74 | 91 | 40 | COCCO[C@H]1C=C2CCN3Cc4cc5c(cc4[C@H]([C@@H]1O)[C@@H]23)OCO5 | > 100 | 47 | 
31 | 29 | 44 | 68 | 38 | COCCO[C@H]1[C@H]2c3cc4c(cc3CN3CCC(=C[C@@H]1OCCOC)[C@H]23)OCO4 | > 100 | 33 | 
32 | 33 | 55 | 78 | 31 | COCO[C@H]1[C@H]2c3cc4c(cc3CN3CCC(=C[C@@H]1OCOC)[C@H]23)OCO4 | > 100 | 53 | 
33 | 27 | 37 | 41 | 22 | O[C@H]1[C@H]2c3cc4c(cc3CN3CCC(=C[C@@H]1OCC1CCC1)[C@H]23)OCO4 | 50 | 50 | 
34 | 48 | > 100 | > 100 | 42 | C#CCO[C@H]1C=C2CCN3Cc4cc5c(cc4[C@H]([C@@H]1O)[C@@H]23)OCO5 | 81 | > 100 | 
35 | 4.5 | 5 | 2.4 | 0.8 | C=CCO[C@H]1[C@H]2c3cc4c(cc3CN3CCC(=C[C@@H]1O[Si](C(C)C)(C(C)C)C(C)C)[C@H]23)OCO4 | 7.6 | 6.6 | 
36 | 4.9 | 19 | 19 | 13 | CCCO[C@H]1[C@H]2c3cc4c(cc3CN3CCC(=C[C@@H]1OCCC)[C@H]23)OCO4 | 8.1 | 24 | 
